Measurements published in PMC11968560 (Proteins, 2024).

Molecular target: T1, PfGrp94 (Plasmodium falciparum glucose-regulated protein 94 kDa, endoplasmin) (Plasmodium falciparum, UniProt Q8I0V4)
T1 sequence (Q8I0V4 22-821): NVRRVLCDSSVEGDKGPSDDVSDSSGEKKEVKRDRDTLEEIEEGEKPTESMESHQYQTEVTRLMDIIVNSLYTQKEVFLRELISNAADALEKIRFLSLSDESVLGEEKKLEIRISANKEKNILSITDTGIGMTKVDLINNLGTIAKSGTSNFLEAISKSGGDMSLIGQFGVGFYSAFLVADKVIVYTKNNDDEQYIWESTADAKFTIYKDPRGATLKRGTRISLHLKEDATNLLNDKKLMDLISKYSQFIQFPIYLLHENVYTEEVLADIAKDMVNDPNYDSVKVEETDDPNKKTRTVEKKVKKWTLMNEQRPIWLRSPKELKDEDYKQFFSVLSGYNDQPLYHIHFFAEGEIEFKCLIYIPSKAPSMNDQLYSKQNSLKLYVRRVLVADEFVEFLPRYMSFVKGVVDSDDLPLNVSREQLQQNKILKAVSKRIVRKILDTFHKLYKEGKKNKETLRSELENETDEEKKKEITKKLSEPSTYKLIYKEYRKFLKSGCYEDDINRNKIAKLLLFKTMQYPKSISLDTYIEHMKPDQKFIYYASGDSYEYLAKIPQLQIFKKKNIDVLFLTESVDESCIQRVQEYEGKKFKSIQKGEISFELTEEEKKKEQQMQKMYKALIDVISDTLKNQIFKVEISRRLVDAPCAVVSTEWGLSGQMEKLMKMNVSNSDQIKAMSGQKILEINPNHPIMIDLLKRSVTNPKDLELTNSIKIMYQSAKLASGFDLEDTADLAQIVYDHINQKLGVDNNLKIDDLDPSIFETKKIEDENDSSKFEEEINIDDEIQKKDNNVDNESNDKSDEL
Test: malachite green ATPase inhibition
Format: biochemical

SMILES: CCNC(=O)[C@H]1O[C@@H](n2cnc3c(N)ncnc32)[C@H](O)[C@@H]1O [NECA]
- EC50: 3.53 ± 1.5 µM
